Source: patent US5990083A, “Multicatalytic protease inhibitors” (Cephalon, Inc., priority 1997, dated 1999)

Legend:
[1] = tested on: processing of electroporated OVA by M12.B6 cells; assay: Inhibition of MHC-I processing of electroporated OVA; type: cell-based, mouse; conditions: FIGS. 2 and 3, IL-2 secretion by T hybridoma cells
Protocol: Compounds of the invention were assayed for the ability to inhibit the processing of exogenous OVA antigen by the class I major histocompatibility pathway (MHC-I). The MCP inhibitors were applied to a functional antigen processing system that allows inclusion of the inhibitor within the antigen processing cell during exposure to antigen, followed by fixation of the processing cell. T cell hybridomas are then added to the processing cells in the absence of inhibitor to determine the expression of peptide-MHC-I complexes, which reflects antigen processing prior to fixation.
Cells were grown at 37° C. in a humidified atmosphere maintained at 5% CO2 in a standard medium: DMEM (Gibco, St. Louis, Mo.) with 10% fetal calf serum (Hyclone, Logan Utah), 5×10^-5 M 2-mercaptoethanol, antibiotics and the following supplements: L-arginine HCl (116 mg/L), L-asparagine (36 mg/L), NaHCO3 (2 g/L), sodium pyruvate (1 mM). See also Harding, C. V., (1992) Eur. J. Immunol. 22: 1865-1869. […]
Electroporation was performed with a Gibco BEL Electroporator using 0.4 cm gap cuvette chambers. […] The extent of processing, (i.e., the level of specific peptide-MHC complexes expressed) was determined by the ability of the M12.B6 cells to stimulate IL-2 secretion by B3.1 or DOBW T hybridoma cells. […]

[2] = tested on: unweighting atrophy of the soleus muscle; assay: Inhibition of unweighting atrophy of the soleus muscle in juvenile rats (muscle protein content); type: in vivo, rat; conditions: for Protein, End (day 3 of unweighting) / Effect (%), change in protein content during day 3 of unweighting: Table 2; for Protein, End (day 3 of unweighting): 24 hours after in situ soleus injection at day 2 of unweighting, mersalyl 200 nM aqueous; for Protein, End (day 3 of unweighting) / Protein, Treatment (unweighted muscle): MCP inhibitor 1 mM in DMSO; for Effect (%), change in protein content during day 3 of unweighting: End versus Start (estimated day 2 content); for Effect (%) on unweighted muscle protein / Protein, Treatment (unweighted muscle): Table 3; for Effect (%) on unweighted muscle protein: Treatment versus Vehicle contralateral muscle; for Protein, Treatment (unweighted muscle): treated soleus, contralateral muscle received vehicle, mersalyl 200 nM
Protocol: The effect of several inhibitors on the unweighting atrophy of the soleus muscle in juvenile rats was determined. See Tischler, M. E. (1990) Metabolism 39/7: 756-763 (hereinafter "Tischler--1990") for a general discussion of the procedure.
(§1) Juvenile female Sprague-Dawley rates (80-90 g) were tail-cast, hind limb suspended as in Jetspers, S. R. and Tischler, M. E., (1984) J. Appl. Physiol. 57: 1472-1479. The animal's hind limbs were elevated above the floor of the cage with each animal housed individually. Animals had free access to food and water, and were weighed at the time of suspension and at time of termination. During the suspension period the animals were checked daily to ensure that their toes were not touching the floor of the cage, and that there was no swelling of the tail due to the cast.
Each experiment began with the suspension of 20 rats which were randomly divided into 4 groups of 5 animals each. Group A was suspended for just 2 days and provided baseline data to approximate the soleus muscle size in other animals suspended for longer times. Average body weights for the groups at the outset of the study were compared and used as a correction factor for body size differences. […] See Tischler--1990. At 2 days after unweighting commenced, an aqueous solution of mersalyl (200 nM; 4 μl/100 g initial body wt) was injected into one soleus, as described previously. The contralateral muscle was injected with a similar volume of 0.9% saline ("Vehicle"). The animals were maintained under Innovar-vet (10 μl/100 g body wt) tranquilization during the in situ injection procedure. After the injections, the animals were suspended for an additional 24 hours and the soleus was removed. Groups C and D for each experiment were used for testing each of two different embodiments of the disclosed compounds.
(§2) Animals were treated as in group B, except that 1 mM MCP inhibitor, contained in dimethysulfoxide (DMSO), was injected into the soleus of one leg and DMSO only into the contralateral soleus. Thus each experiment consisted of two control groups and the testing of MCP inhibitors of the invention. The completion of five such experiments with different pairs of inhibitors provided for an "n" value of 10 for testing each MCP inhibitor and with each tested in two different shipments of animals.
(§3) After the animal was sacrificed, the soleus was excised, trimmed of fat and connective tissue, and carefully weighed. The muscle was then homogenized in 10% trichloroacetic acid (TCA) and the precipitated protein pelleted by centrifugation. The pellet was then washed once with 10% TCA and once with ethanol:ether (1:1). The final pellet was solubilized in 4 ml of 1N sodium hydroxide. The sample was then analyzed for protein content by the biuret procedure, using albumin as a standard.
(§4) The effect of MCP inhibitors on total muscle protein content was examined primarily by paired comparison with the untreated contralateral muscle. The ratio of contents was calculated and then analyzed statistically by analysis of variance ("ANOVA"). The left leg was always the treated leg so that the protein content ratios could be compared to the non-treated control animals as well. In this way, a significant difference can be shown by comparing the protein content of the two legs, as well as the relative effectiveness of the tested MCP inhibitors. A paired student test was also performed for the effect of each separate treatment. The non-treated control data also provided an estimate of protein content of day 2. This allowed approximation of the protein changes over the 24 hours of treatment for each of the Groups B, C, and D.

control soleus muscle = assay: Effect of MCP inhibitors on control muscle protein content; type: in vivo, rat; conditions: Table 1; treated soleus versus vehicle-injected contralateral muscle
Excerpt: as §1, §2, §3
as §4, with “A paired student test was also performed for the effect of each separate treatment. The non-treated control data also provided an estimate of protein content of day 2. This allowed approximation of the protein changes over the 24 hours of treatment for each of the Groups B, C, and D.” left out

SMILES: CC(C)C[C@@H](C=O)NC(=O)[C@H](CCCNC(=N)N[N+](=O)[O-])NC(=O)C(CCCCCCCCC#N)C1CCCC1 (stereo partly drawn) [Compound 14, 10-cyano-2-cyclopentyldecanoyl-N^g-nitro-L-arginyl-L-leucinal]
- Effect on MHC-1 OVA processing [1]: effectively inhibit OVA processing
- Protein, End (day 3 of unweighting) [2]: 6.4 mg/muscle
- Effect (%), change in protein content during day 3 of unweighting [2]: 0%
- Effect (%) on unweighted muscle protein [2]: 7%
- Protein, Treatment (unweighted muscle) [2]: 6.4 mg/muscle
- Protein, Treatment (control muscle) (control soleus muscle): 6.1 mg/muscle

SMILES: COC(=O)CCCCCCCC(C(=O)N[C@@H](CCCNC(=N)NS(=O)(=O)c1c(C)c(C)c2c(c1C)CCC(C)(C)O2)C(=O)N[C@H](C=O)CC(C)C)C1CCCC1 (stereo partly drawn) [Compound 20, 9-Methoxycarbonyl-2-cyclopentyl-nonanoyl-N^g-(2,2,5,7,8-pentamethylchroman-6-sulfonyl)-L-arginyl-L-leucinal]
- Effect on MHC-1 OVA processing [1]: effectively inhibit OVA processing
- Protein, End (day 3 of unweighting) [2]: 6.2 mg/muscle
- Effect (%), change in protein content during day 3 of unweighting [2]: -4%
- Effect (%) on unweighted muscle protein [2]: 5%
- Protein, Treatment (unweighted muscle) [2]: 6.2 mg/muscle
- Protein, Treatment (control muscle) (control soleus muscle): 5.9 mg/muscle
